Active and inactive are the calls of the source. The rule behind the calls is not given here.
Tests used:
[1] = species on record: Rattus norvegicus; assay: Selectivity ratio of EC50 for rat TAAR1 transmembrane domain 6 Met268(6.55)Thr mutant to EC50 for rat wild type TAAR1
[2] = test system: Trace amine-associated receptor 1 (Mus musculus), Q923Y8 [T268M]; assay: Activation of mouse TAAR1 transmembrane domain 6 Thr268(6.55)Met mutant expressed in HEK293 cells assessed as stimulation of cAMP production at 0.0001 to 100 uM after 1 hr by chemiluminescent assay relative to beta-phenylethylamine; assay type: functional, cell-based
[3] = test system: Trace amine-associated receptor 1 (Mus musculus), Q923Y8 [D102A]; assay: Activation of mouse TAAR1 Asp102(3.32)Ala mutant expressed in HEK293 cells assessed as stimulation of cAMP production at 0.0001 to 100 uM after 1 hr by chemiluminescent assay; assay type: functional, cell-based
[4] = test system: Trace amine-associated receptor 1 (Rattus norvegicus), Q923Y9 [N287Y]; assay: Activation of rat TAAR1 transmembrane domain 7 Asn287(7.39)Tyr mutant expressed in HEK293 cells assessed as stimulation of cAMP production at 0.0001 to 100 uM after 1 hr by chemiluminescent assay relative to beta-phenylethylamine; assay type: functional, cell-based
[5] = test system: Trace amine-associated receptor 1 (Rattus norvegicus), Q923Y9 [M268T]; assay: Activation of rat TAAR1 transmembrane domain 6 Met268(6.55)Thr mutant expressed in HEK293 cells assessed as stimulation of cAMP production at 0.0001 to 100 uM after 1 hr by chemiluminescent assay relative to beta-phenylethylamine; assay type: functional, cell-based
[6] = test system: Trace amine-associated receptor 1 (Mus musculus), Q923Y8 [Y287N]; assay: Activation of mouse TAAR1 transmembrane domain 7 Tyr287(7.39)Asn mutant expressed in HEK293 cells assessed as stimulation of cAMP production at 0.0001 to 100 uM after 1 hr by chemiluminescent assay relative to beta-phenylethylamine; assay type: functional, cell-based
[7] = molecular target: Trace amine-associated receptor 1 (Rattus norvegicus, UniProt Q923Y9, M268T); assay: Activation of rat TAAR1 transmembrane domain 6 Met268(6.55)Thr mutant expressed in HEK293 cells assessed as stimulation of cAMP production after 1 hr by chemiluminescent assay; assay type: functional, cell-based
[8] = molecular target: Trace amine-associated receptor 1 (Mus musculus, UniProt Q923Y8); assay: Activation of mouse wild type TAAR1 expressed in HEK293 cells assessed as stimulation of cAMP production after 1 hr by chemiluminescent assay; assay type: functional, cell-based
[9] = molecular target: Trace amine-associated receptor 1 (Mus musculus) (UniProt Q923Y8); assay: Activation of mouse wild type TAAR1 expressed in HEK293 cells assessed as stimulation of cAMP production at 0.0001 to 100 uM after 1 hr by chemiluminescent assay relative to beta-phenylethylamine; assay type: functional, cell-based
[10] = molecular target: Trace amine-associated receptor 1 (Rattus norvegicus, UniProt Q923Y9, N287Y); assay: Activation of rat TAAR1 transmembrane domain 7 Asn287(7.39)Tyr mutant expressed in HEK293 cells assessed as stimulation of cAMP production after 1 hr by chemiluminescent assay; assay type: functional, cell-based
[11] = molecular target: Trace amine-associated receptor 1 (Mus musculus, UniProt Q923Y8, Y287N); assay: Activation of mouse TAAR1 transmembrane domain 7 Tyr287(7.39)Asn mutant expressed in HEK293 cells assessed as stimulation of cAMP production after 1 hr by chemiluminescent assay; assay type: functional, cell-based
[12] = species on record: Mus musculus; assay: Selectivity ratio of EC50 for mouse wild type TAAR1 to EC50 for mouse TAAR1 transmembrane domain 6 Thr268(6.55)Met mutant
[13] = molecular target: Trace amine-associated receptor 1 (Rattus norvegicus) (UniProt Q923Y9); assay: Activation of rat wild type TAAR1 expressed in HEK293 cells assessed as stimulation of cAMP production at 0.0001 to 100 uM after 1 hr by chemiluminescent assay relative to beta-phenylethylamine; assay type: functional, cell-based
[14] = molecular target: Trace amine-associated receptor 1 (Mus musculus, UniProt Q923Y8, T268M); assay: Activation of mouse TAAR1 transmembrane domain 6 Thr268(6.55)Met mutant expressed in HEK293 cells assessed as stimulation of cAMP production after 1 hr by chemiluminescent assay; assay type: functional, cell-based
[15] = test system: Trace amine-associated receptor 1 (Rattus norvegicus), Q923Y9 [D102A]; assay: Activation of rat TAAR1 Asp102(3.32)Ala mutant expressed in HEK293 cells assessed as stimulation of cAMP production at 0.0001 to 100 uM after 1 hr by chemiluminescent assay relative to control; assay type: functional, cell-based
[16] = molecular target: Trace amine-associated receptor 1 (Rattus norvegicus, UniProt Q923Y9); assay: Activation of rat wild type TAAR1 expressed in HEK293 cells assessed as stimulation of cAMP production after 1 hr by chemiluminescent assay; assay type: functional, cell-based
[17] = test system: Trace amine-associated receptor 1 (Rattus norvegicus), Q923Y9 [N287Y]; assay: Activation of rat TAAR1 transmembrane domain 7 Asn287(7.39)Tyr mutant expressed in HEK293 cells assessed as stimulation of cAMP production at 0.0001 to 100 uM after 1 hr by chemiluminescent assay relative to control; assay type: functional, cell-based
[18] = test system: Trace amine-associated receptor 1 (Mus musculus), Q923Y8 [Y287N]; assay: Activation of mouse TAAR1 transmembrane domain 7 Tyr287(7.39)Asn mutant expressed in HEK293 cells assessed as stimulation of cAMP production at 0.0001 to 100 uM after 1 hr by chemiluminescent assay relative to control; assay type: functional, cell-based
[19] = test system: Trace amine-associated receptor 1 (Mus musculus), Q923Y8 [T268M]; assay: Activation of mouse TAAR1 transmembrane domain 6 Thr268(6.55)Met mutant expressed in HEK293 cells assessed as stimulation of cAMP production at 0.0001 to 100 uM after 1 hr by chemiluminescent assay relative to control; assay type: functional, cell-based
[20] = molecular target: Trace amine-associated receptor 1 (Mus musculus) (UniProt Q923Y8); assay: Activation of mouse wild type TAAR1 expressed in HEK293 cells assessed as stimulation of cAMP production at 0.0001 to 100 uM after 1 hr by chemiluminescent assay relative to control; assay type: functional, cell-based
[21] = test system: Trace amine-associated receptor 1 (Rattus norvegicus), Q923Y9 [M268T]; assay: Activation of rat TAAR1 transmembrane domain 6 Met268(6.55)Thr mutant expressed in HEK293 cells assessed as stimulation of cAMP production at 0.0001 to 100 uM after 1 hr by chemiluminescent assay relative to control; assay type: functional, cell-based
[22] = molecular target: Trace amine-associated receptor 1 (Rattus norvegicus) (UniProt Q923Y9); assay: Activation of rat wild type TAAR1 expressed in HEK293 cells assessed as stimulation of cAMP production at 0.0001 to 100 uM after 1 hr by chemiluminescent assay relative to control; assay type: functional, cell-based

Sequence of Trace amine-associated receptor 1 (Rattus norvegicus), Q923Y9 [N287Y] (Q923Y9 whole entry N287Y, the tested form may be a part): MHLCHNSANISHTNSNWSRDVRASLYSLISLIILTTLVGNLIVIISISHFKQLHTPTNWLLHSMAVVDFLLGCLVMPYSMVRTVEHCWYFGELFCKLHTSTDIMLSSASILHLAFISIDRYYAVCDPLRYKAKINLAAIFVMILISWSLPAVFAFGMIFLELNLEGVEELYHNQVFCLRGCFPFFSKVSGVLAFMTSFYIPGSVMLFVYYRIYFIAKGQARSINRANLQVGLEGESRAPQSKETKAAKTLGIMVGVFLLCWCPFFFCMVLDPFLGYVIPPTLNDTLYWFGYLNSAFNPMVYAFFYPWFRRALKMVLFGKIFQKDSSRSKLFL
Sequence of Trace amine-associated receptor 1 (Rattus norvegicus, UniProt Q923Y9, N287Y) (Q923Y9 whole entry N287Y, the tested form may be a part): as above
Sequence of Trace amine-associated receptor 1 (Mus musculus), Q923Y8 [D102A] (Q923Y8 whole entry D102A, the tested form may be a part): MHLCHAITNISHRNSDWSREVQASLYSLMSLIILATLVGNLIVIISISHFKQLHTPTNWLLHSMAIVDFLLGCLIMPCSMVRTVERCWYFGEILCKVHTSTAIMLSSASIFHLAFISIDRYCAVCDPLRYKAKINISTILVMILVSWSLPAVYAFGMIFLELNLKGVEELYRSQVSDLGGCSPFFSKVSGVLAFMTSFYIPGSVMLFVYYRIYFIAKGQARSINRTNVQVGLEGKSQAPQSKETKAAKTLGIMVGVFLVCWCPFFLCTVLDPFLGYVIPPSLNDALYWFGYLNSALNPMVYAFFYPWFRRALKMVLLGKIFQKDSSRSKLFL
Sequence of Trace amine-associated receptor 1 (Mus musculus), Q923Y8 [T268M] (Q923Y8 whole entry T268M, the tested form may be a part): as the sequence (Q923Y8 whole entry D102A, the tested form may be a part) above, with A102D, T268M counted along it
Sequence of Trace amine-associated receptor 1 (Mus musculus, UniProt Q923Y8, T268M) (Q923Y8 whole entry T268M, the tested form may be a part): as the sequence (Q923Y8 whole entry D102A, the tested form may be a part) above, with A102D, T268M counted along it
Sequence of Trace amine-associated receptor 1 (Mus musculus), Q923Y8 [Y287N] (Q923Y8 whole entry Y287N, the tested form may be a part): as the sequence (Q923Y8 whole entry D102A, the tested form may be a part) above, with A102D, Y287N counted along it
Sequence of Trace amine-associated receptor 1 (Mus musculus, UniProt Q923Y8, Y287N) (Q923Y8 whole entry Y287N, the tested form may be a part): as the sequence (Q923Y8 whole entry D102A, the tested form may be a part) above, with A102D, Y287N counted along it
Sequence of Trace amine-associated receptor 1 (Mus musculus, UniProt Q923Y8) (Q923Y8 whole entry): as the sequence (Q923Y8 whole entry D102A, the tested form may be a part) above, with A102D counted along it
Sequence of Trace amine-associated receptor 1 (Mus musculus) (Q923Y8 whole entry, the tested form may be a part): as the sequence (Q923Y8 whole entry D102A, the tested form may be a part) above, with A102D counted along it
Sequence of Trace amine-associated receptor 1 (Rattus norvegicus) (Q923Y9 whole entry, the tested form may be a part): as the sequence (Q923Y9 whole entry N287Y, the tested form may be a part) above, with Y287N counted along it
Sequence of Trace amine-associated receptor 1 (Rattus norvegicus), Q923Y9 [M268T] (Q923Y9 whole entry M268T, the tested form may be a part): as the sequence (Q923Y9 whole entry N287Y, the tested form may be a part) above, with M268T, Y287N counted along it
Sequence of Trace amine-associated receptor 1 (Rattus norvegicus, UniProt Q923Y9, M268T) (Q923Y9 whole entry M268T, the tested form may be a part): as the sequence (Q923Y9 whole entry N287Y, the tested form may be a part) above, with M268T, Y287N counted along it
Sequence of Trace amine-associated receptor 1 (Rattus norvegicus, UniProt Q923Y9) (Q923Y9 whole entry, the tested form may be a part): as the sequence (Q923Y9 whole entry N287Y, the tested form may be a part) above, with Y287N counted along it
Sequence of Trace amine-associated receptor 1 (Rattus norvegicus), Q923Y9 [D102A] (Q923Y9 whole entry D102A): as the sequence (Q923Y9 whole entry N287Y, the tested form may be a part) above, with D102A, Y287N counted along it

How did the Ratio EC50 [1] turn out when `CN[C@H](C)Cc1ccccc1` was run?
Its Ratio EC50 is 10.

What about the Emax [2] of the same molecule?
Its Emax is 91.5%.

What about the Activity [3] of the same molecule?
The Activity was “inactive”.

What about the Emax [4] of the same molecule?
The Emax was 93.3%.

What about the Emax [5] of the same molecule?
The Emax was 77.6%.

What about the Emax [6] of the same molecule?
The Emax was 89.6%.

And the EC50 [7]?
The EC50 was 1.11 µM.

And the EC50 [8]?
The EC50 was 0.843 µM.

What about the Emax [9] of the same molecule?
The Emax was 96.9%.

What about the EC50 [10] of the same molecule?
The EC50 was 0.33 µM.

What about the EC50 [11] of the same molecule?
The EC50 was 1.6 µM.

And the Ratio EC50 [12]?
Its Ratio EC50 is 10.

What about the Emax [13] of the same molecule?
Its Emax is 82.5%.

What about the EC50 [14] of the same molecule?
Its EC50 is 0.126 µM.

How did the Activity [3] turn out when `NCCc1ccc(O)cc1` was run?
The Activity was “inactive”.

What about the Activity [15] of the same molecule?
The Activity was “inactive”.

Which Emax [2] does the source give for `C[C@H](N)Cc1ccccc1` [DEXTROAMPHETAMINE] here?
Its Emax is 98%.

And the Activity [3]?
The Activity was “inactive”.

What about the Emax [4] of the same molecule?
Its Emax is 103%.

And the Emax [5]?
The Emax was 93.8%.

What about the Emax [6] of the same molecule?
The Emax was 93%.

What about the EC50 [8] of the same molecule?
Its EC50 is 0.0846 µM.

What about the Emax [9] of the same molecule?
The Emax was 99.8%.

And the EC50 [11]?
Its EC50 is 0.219 µM.

What about the Emax [13] of the same molecule?
Its Emax is 102%.

What about the EC50 [14] of the same molecule?
The EC50 was 0.00398 µM.

For `C[C@@H](N)Cc1ccccc1` [LEVAMFETAMINE], which Emax [2] is on record?
The Emax was 90.5%.

And the Activity [3]?
The Activity was “inactive”.

And the Emax [4]?
The Emax was 95.8%.

And the Emax [5]?
Its Emax is 91.6%.

What about the Emax [6] of the same molecule?
The Emax was 89.4%.

What about the Emax [9] of the same molecule?
The Emax was 93.6%.

And the EC50 [11]?
Its EC50 is 0.105 µM.

What about the Emax [13] of the same molecule?
The Emax was 86.7%.

What about the EC50 [14] of the same molecule?
Its EC50 is 0.121 µM.

For `CN[C@@H](C)Cc1ccccc1` [METHAMPHETAMINE], which Ratio EC50 [1] is on record?
Its Ratio EC50 is 10.

What about the Emax [2] of the same molecule?
Its Emax is 94%.

What about the Activity [3] of the same molecule?
Its Activity is “inactive”.

And the Emax [4]?
Its Emax is 101%.

And the Emax [5]?
The Emax was 94.3%.

And the Emax [6]?
The Emax was 92.2%.

And the EC50 [7]?
The EC50 was 2.04 µM.

What about the EC50 [8] of the same molecule?
Its EC50 is 0.279 µM.

What about the EC50 [16] of the same molecule?
Its EC50 is 0.133 µM.

And the Emax [9]?
The Emax was 98%.

And the EC50 [10]?
The EC50 was 0.202 µM.

What about the EC50 [11] of the same molecule?
Its EC50 is 1.82 µM.

What about the Ratio EC50 [12] of the same molecule?
The Ratio EC50 was 10.

And the Emax [13]?
Its Emax is 94.3%.

And the EC50 [14]?
Its EC50 is 0.0178 µM.

Which Emax [17] does the source give for `NCCc1ccccc1` [PHENETHYLAMINE] here?
The Emax was 97.2%.

And the Activity [3]?
Its Activity is “inactive”.

What about the Emax [18] of the same molecule?
The Emax was 95.9%.

What about the EC50 [7] of the same molecule?
Its EC50 is 0.261 µM.

And the Emax [19]?
The Emax was 97.6%.

What about the EC50 [8] of the same molecule?
The EC50 was 0.189 µM.

What about the EC50 [16] of the same molecule?
Its EC50 is 0.0403 µM.

And the Emax [20]?
The Emax was 95%.

And the Emax [21]?
Its Emax is 97.8%.

And the Emax [22]?
Its Emax is 96.4%.

What about the EC50 [10] of the same molecule?
Its EC50 is 0.171 µM.

What about the EC50 [11] of the same molecule?
Its EC50 is 0.0586 µM.

What about the EC50 [14] of the same molecule?
The EC50 was 0.0473 µM.
